# Test results as given in patent EP0618807B1, “A STABILIZED PHARMACEUTICAL FORMULATION COMPRISING GROWTH HORMONE AND HISTIDINE” (NOVO NORDISK A/S, priority 1991, dated 1993).
# Legend:
# [1] = Stability statements of the general description (deamidation, stability in solution); type: physicochemical; conditions: addition of the solvent to the hGH preparation
# [2] = Example 2: deamidation at 25°C with histidine or histidine derivatives, desamido content by IE-HPLC; type: physicochemical; conditions: compared to phosphate at pH 6.5
# Experimental: The rate of deamidation was examined at 25°C for hGH preparations comprising 6 IU hGH at pH 6.5 and at pH 7.3 in 5 mM, 10 mM and 100mM His buffer as compared to 8 mM phosphate buffer at the same pH. Furthermore, the histidine derivatives His-Gly, His-Ala, His-Leu, His-Lys, His-Phe, His-Ser, Histidine methyl ester, histidinol, imidazole, imidazole-4-acetic acid and histamine were tested.
# The hGH preparations were prepared by dissolving 20 mg hGH in 10 ml of histidine buffer of the desired strength prepared by dissolving 7.8 mg, 15.5 mg and 155.2 mg, respectively, of histidine in 10 ml deionized water containing 0.9% (v/v) of benzyl alcohol and adding 0.1 N hydrochloric acid to achieve the stated pH.
# The hGH formulations stated in Table 2 below were stored at 25°C and analyzed for their desamido content after 14 and 30 days by IE-HPLC.
SMILES,reduction in the deamidation [1],effect on de-amidation / stabilization (in words) [2]
"CO [5% methanol, methanol]",more than 20%,
"CCO [10% ethanol, ethanol]",more than 20%,
OCc1ccccc1 [benzyl alcohol],,no influence
Cc1cccc(O)c1 [m-cresol],,no influence
